# Measured values taken from ChEMBL document CHEMBL4831513, “Discovery of quinazoline derivatives as a novel class of potent and in vivo efficacious LSD1 inhibitors by drug repurposing” (Eur J Med Chem, 2021).
# Biological target: Lysine-specific histone demethylase 1A (Homo sapiens, UniProt O60341)
# Description: Inhibition of recombinant full length LSD1 (unknown origin) transfected in Escherichia coli BL21 (DE) using H3K4me2 as substrate by flourescence based analysis
row,IC50 [µM],SMILES
1,> 50,COCCOc1cc2ncnc(Sc3ccc(C)cc3)c2cc1OCCOC
2,> 50,COCCOc1cc2ncnc(Oc3ccc(OC)cc3)c2cc1OCCOC
3,> 50,C#Cc1cccc(Nc2ncnc3cc(OCc4ccccc4)c(OC)cc23)c1

# Further lines, the compound ahead of its results:
row,SMILES,IC50 [µM]
1,COCCOc1cc2ncnc(Sc3nnnn3C)c2cc1OCCOC,> 50
2,COCCOc1cc2ncnc(N3CCN(C(C)=O)CC3)c2cc1OCCOC,> 50
